Measurements published in US7879789B2, “Surfactant and composition containing the same” (priority 2006, dated 2011).

Experiment: Emulsion stability of Table 1 blending compositions with various emulsifiers
Assay type: physicochemical
Settings: storage at low temperature; Table 2
Protocol: The present inventors have prepared various polyoxyalkylene substitution compounds according to the respective synthesis examples and evaluated the emulsion stability for the blending compositions shown in Table 1. The various evaluation items are as follows. “Emulsion Stability” The oil phase component, water phase component, and various emulsifiers shown in Table 1 were mixed, and the emulsification mixing was carried out with a homomixer at 8000 rpm for 1 minute. The appearance was visually observed 30 minutes after emulsification, and the appearances were also observed after being stored for 3 days on standing at room temperature and also at −5° C., respectively. The evaluation criteria were as follows. • ◯ . . . The emulsion was uniform and milky white. • Δ . . . A small amount of floating oil was observed; however, it was milky white. • X . . . Solid matter was observed, or the separation of the water phase and the oil phase was observed.

CCCCCCCCCCCC(=O)N[C@@H](CCC(=O)[O-])C(=O)[O-].[Na+].[Na+] [1-2, Sodium lauroyl-glutamate]
emulsion stability at low temperature (in words): the emulsifier separated out

CCCCCCCCCCCCOS(=O)(=O)[O-].[Na+] [Comparative Examples 1-1, Dodecyl sodium sulfate]
emulsion stability at low temperature (in words): the emulsifier separated out
